Assays:
rat aorta = experiment: Inhibitory effects with respect to contractions of the rat aorta induced by 80 mM KCl; format: cell-based, WISTAR rats; conditions: isolated rat aorta
Protocol: The compounds of the present invention were tested for their calcium-inhibitory properties by standard methods applicable "in vitro".
Inhibitory effects with respect to contractions of the rat aorta induced by 80 mM KCl.
The aorta of WISTAR rats (220-250 g), sacrificed by decapitation, are removed and placed in a 20-ml organ bath at a temperature of 34° C., containing a KREBS solution composed as follows (in mmol per liter): NaCl, 137; KCl, 2.7; MgCl2.6H2 O, 1.04; CaCl2.2H2 O, 0.8; Na2 HPO4.H2 O, 0.42; NaHCO3, 11.9; glucose, 5. This solution is oxygenated with a mixture of 95% of O2 and 5% of CO2 (Furchgott and Bhadakron, 1956).
After a 45-minute stabilization period under a tension of 2 g, the maximal contractions of the artery are induced by adding KCl to the bath until a final concentration of 80 mmol/liter is attained. After the contractions have stabilized, the compounds of the invention, or OXODIPINE as control substance, are added, leaving a period of at least 10 minutes for stabilizing the relaxation.
The compounds of the present invention are dissolved in ethanol to give concentrated solutions containing approximately 1 mg/ml, from which the dilutions used above, from 10^-13 to 10^-7 M, are obtained by adding saline solution. The 50% inhibitory concentrations (IC50) are determined by analysis of the straight regression line.

in vivo = conditions: mouse, ip, mice, i.p., mortality in 7 days, read-out: intraperitoneal LD50
Protocol: The acute toxicity of a few compounds of the invention was determined in mice according to the method of […] and WILCOXON. Groups of 5 mice weighing 20-25 g were treated with increasing i.p. doses of the test compounds. The mortality was recorded in the 7 days following the treatment, and the LD50 calculated on this basis.

[1] = tested on: conscious renal hypertensive rats; experiment: antihypertensive activity on conscious renal hypertensive rats (systolic blood pressure, tail sleeve); format: in vivo, rat; conditions: i.p.; for decrease of the original high pressure: 1 mg/kg
Protocol: (2)1- antihypertensive activity:
A few compounds according to the invention were tested for their antihypertensive activity on conscious renal hypertensive rats. The systolic blood pressure was measured on the tail of unanaesthetized rats by means of an inflatable sleeve and an L.H.5 000 digital pressure gauge (Letica Instruments, Barcelona, Spain). The measurements were carried out before the i.p. administration of the test substance, and then 30 minutes, 1, 2, 4 and 5 hours after administration. The animals were maintained in preheated plastic cylinders during the measurements. Rats having a blood pressure of less than 160 mmHg were eliminated from the experiment.
Each compound was administered in 5% strength suspension (CMC) by i.p. injection.

coronary vessels = experiment: Vascular activity in anaesthetized dogs: regional blood flows and haemodynamics with coronary artery occlusion; format: in vivo; conditions: i.v.
Protocol: The beneficial effects on the oxygen supply/consumption balance may be accompanied by a modification of the blood distribution within the wall, which will be better irrigated, and by an increase in the blood flow in the collateral vessels during an acute occlusion of the coronary artery. The effects of the compound of Example 11, at doses of 10 and less than 10 μg/kg i.v., were explored in anaesthetized dogs in order to determine: the regional (endocardium, epicardium) myocardial blood flows in the ischaemic and non-ischaemic zones, the ratio between the endo- and epicardial flows and the ratio of the flows in the ischaemic/nonischaemic zone, the regional blood flows in other areas (spleen, pancreas, kidney, liver, stomach, intestines, muscle, skin) in order to define the selectivity of action of the compound. The studies were carried out on 6 adult dogs, according to the technique of […] and […]. Pharmacol. 1985 - 16 - 59 - 74 and J. Pharmacol. Exp. Ther. 1982, 221, 740-747). In addition, the haemodynamic parameters (heart rate, arterial blood pressure, left ventricular pressure, cardiac flow, total peripheral resistance, systolic ejection volume, cardiac work, contractility index) were monitored at regular times, before and after 3 successive short periods (12 minutes) of total occlusion of the coronary artery, the injection of radioactive microspheres enabling the regional flows to be evaluated. After the first period of ischaemia, the parameters were allowed to return to normal before the test compound was injected, the second occlusion was then performed and this procedure was repeated, the reversibility of the parameters being complete approximately 45 minutes after each occlusion. The test compound was administered in aqueous-alcoholic solution (0.1 mg/ml) on the basis of 0.1 ml/kg i.v.

[2] = 3 mg/kg/min and above, in words; cited from earlier work

## COC(=O)C1=C(C)NC(C)=C(C(=O)OCCN(C)Cc2cccnc2)C1c1cccc2c1OCO2 (centres unmarked) [Example 6, 3-Methyl 5-{2-[N-methyl-N-(3-picolyl)amino]ethyl}1,4-dihydro-2,6-dimethyl-4-(2,3-methylenedioxyphenyl)-3,5-pyridinedicarboxylate]
Rat aorta
  IC50: 9 nM

## COC(=O)C1=C(C)NC(C)=C(C(=O)OCCN(C=O)Cc2ccccc2)C1c1cccc2c1OCO2 (centres unmarked) [Example 3, 3-Methyl 5-[2-(N-formyl-N-benzylamino)ethyl]1,4-dihydro-2,6-dimethyl-4-(2,3-methylenedioxyphenyl)-3,5-pyridinedicarboxylate]
Rat aorta
  IC50: 52.8 nM

## COC(=O)C1=C(C)NC(C)=C(C(=O)OCCN(C)C=O)C1c1cccc2c1OCO2 (centres unmarked) [Example 2, 3-Methyl 5-[2-(N-formyl-N-methylamino)ethyl]1,4-dihydro-2,6-dimethyl-4-(2,3-methylenedioxyphenyl)-3,5-pyridinedicarboxylate]
Rat aorta
  IC50: 558 nM

## COC(=O)C1=C(C)NC(C)=C(C(=O)OCCN(C)Cc2cccs2)C1c1cccc2c1OCO2 (centres unmarked) [Example 9, 3-Methyl 5-{2-[N-methyl-N-(2-thienylmethyl)amino]ethyl}1,4-dihydro-2,6-dimethyl-4-(2,3-methylenedioxyphenyl)-3,5-pyridinedicarboxylate]
Rat aorta
  IC50: 13 nM

## CCOC(=O)C1=C(C)NC(C)=C(C(=O)OCCN(C)Cc2ccc(F)cc2)C1c1cccc2c1OCO2 (centres unmarked) [Example 8, 3-Ethyl 5-{2-[N-methyl-N-(4-fluorobenzyl)amino]ethyl}1,4-dihydro-2,6-dimethyl-4-(2,3-methylenedioxyphenyl)-3,5-pyridinedicarboxylate]
Rat aorta
  IC50: 0.04 nM
In vivo
  LD50 at 168 h: 70 to 80 mg/kg
[1]
  decrease of the original high pressure: 23%

## COC(=O)C1=C(C)NC(C)=C(C(=O)OCCN(C)Cc2ccc(F)cc2)C1c1cccc2c1OCO2 (centres unmarked) [Example 7, 3-Methyl 5-{2-[N-methyl-N-(4-fluorobenzyl)amino]ethyl}1,4-dihydro-2,6-dimethyl-4-(2,3-methylenedioxyphenyl)-3,5-pyridinedicarboxylate]
Rat aorta
  IC50: 2.75 nM

## CC1=C(C(=O)OCCN(C)Cc2ccc(F)cc2)C(c2cccc3c2OCO3)C(C(=O)OC(C)C)=C(C)N1 (centres unmarked) [Example 11, 3-Isopropyl 5-{2-[N-methyl-N-(4-fluorobenzyl)amino]ethyl}1,4-dihydro-2,6-dimethyl-4-(2,3-methylenedioxyphenyl)3,5-pyridinedicarboxylate]
Coronary vessels
  arterial blood pressure change: -13%
  cardiac flow change: +9%
  heart rate change: -9%
  systolic ejection volume change: +18%
  total peripheral resistance reduction: 20%
Coronary vessels; ischaemic zones
  epicardial flow increase: ≥ 20%
Coronary vessels; ischaemic zones, p<0.05
  endo/epi ratio change: -21%
Coronary vessels; non-ischaemic zones
  transmural flow increase: 42%
Coronary vessels; non-ischaemic zones, p<0.001
  endo/epi ratio change: -22%
  epicardial flow change: +62%
Coronary vessels; non-ischaemic zones, p<0.05
  coronary vascular resistance change: -38%
  endocardial flow change: +26%
In vivo
  LD50 at 168 h: 30 to 40 mg/kg
[1]
  decrease of the original high pressure: 33%
  duration of antihypertensive effects: more than 6 hours

## CCOC(=O)C1=C(C)NC(C)=C(C(=O)OC)C1c1cccc2c1OCO2 (centres unmarked) [OXODIPINE, reference compound]
Rat aorta
  IC50: 3.1 nM

## COC(=O)C1=C(C)NC(C)=C(C(=O)OCCN(C)Cc2ccccn2)C1c1cccc2c1OCO2 (centres unmarked) [Example 4, 3 -Methyl 5-{2-[N-methyl-N-(2-picolyl)amino]ethyl}1,4-dihydro-2,6-dimethyl-4-(2,3-methylenedioxyphenyl)-3,5-pyridinedicarboxylate]
Rat aorta
  IC50: 81.1 nM

## CC1=C(C(=O)OCCN(C)Cc2cccs2)C(c2cccc3c2OCO3)C(C(=O)OC(C)C)=C(C)N1 (centres unmarked) [Example 12, 3-Isopropyl 5-{2-[N-methyl-N-(2-thienylmethyl)amino]ethyl}1,4-dihydro-2,6-dimethyl-4-(2,3-methylenedioxyphenyl)-3,5-pyridinedicarboxylate]
Rat aorta
  IC50: 22.5 nM

## COC(=O)C1=C(C)NC(C)=C(C(=O)OC)C1c1ccccc1[N+](=O)[O-] [NIFEDIPINE]
[2]
  heart rate: increased
  myocardial regional flows: decreases the myocardial regional flows
  perfusion pressure: strongly reduced

## CNCCOC(=O)C1=C(C)NC(C)=C(C(=O)OC)C1c1cccc2c1OCO2 (centres unmarked) [Example 1, 3-Methyl 5-[2-(N-methylamino)ethyl]1,4-dihydro-2,6-dimethyl-4-(2,3-methylenedioxyphenyl)-3,5-pyridinedicarboxylate]
Rat aorta
  IC50: 1920 nM

## COC(=O)C1=C(C)NC(C)=C(C(=O)OCCN(C)Cc2ccncc2)C1c1cccc2c1OCO2 (centres unmarked) [Example 5, 3-Methyl 5{2-[N-methyl-N-(4-picolyl)amino]ethyl}1,4-dihydro-2,6-dimethyl-4-(2,3-methylenedioxyphenyl)-3,5-pyridinedicarboxylate]
Rat aorta
  IC50: 245 nM

## CCOC(=O)C1=C(C)NC(C)=C(C(=O)OCCN(C)Cc2cccs2)C1c1cccc2c1OCO2 (centres unmarked) [Example 10, 3-Ethyl 5-{2-[N-methyl-N-(2-thienylmethyl)amino]ethyl}1,4-dihydro-2,6-dimethyl-4-(2,3-methylenedioxyphenyl)-3,5-pyridinedicarboxylate]
Rat aorta
  IC50: 0.904 nM

Source: US4952592A, “1,4-dihydro 2,6-dimethyl 4-(2,3-methylenedioxyphenyl) 3-alkoxy carbonyl 5-[2-(substituted amino)ethoxy]carbonyl pyridine” (Instituto de Investigacion Y Desarrollo Quimicobiologico …, priority 1987, dated 1990)
